{
  "source": "patent US20210102239A1",
  "about": "“METHOD FOR DETERMINING BACTERIAL NUMBER IN SPECIMEN” (MITSUI CHEMICALS, INC., priority 2017, published 2021)",
  "key": {"[1]": {"test_system": "K. oxytoca", "test": "drug sensitivity test of the pathogenic bacterium from blood culture", "type": "cell-based, Klebsiella oxytoca", "settings": "Case 2, isolate from blood specimen sampled before antibiotic treatment", "procedure": "(§1) According to Step 1 to Step 4 of Example 1, a pathogenic bacterium rapid quantification test using sepsis patient's specimens (EDTA blood collection tube, 2 mL) was carried out. […] Blood was sampled before treatment with an antibiotic (pretreatment), and 24 hours (after 24 hrs.) and 72 hours (after 72 hrs.) after administration of the antibiotic. At the three points, a pathogenic bacterium rapid quantification test was carried out together with measurement of body temperature, white blood cell count, CRP, presepsin and IL-6. Furthermore, a blood specimen sampled before the antibiotic treatment was subjected to a blood culture method to identify a pathogenic bacterium and subjected to a drug sensitivity test. General information about individual cases is as follows."}, "[2]": {"test_system": "H. influenzae", "test": "drug sensitivity test of the pathogenic bacterium from blood culture", "type": "cell-based, Haemophilus influenzae", "settings": "Case 2, isolate from blood specimen sampled before antibiotic treatment", "procedure": "as §1"}, "[3]": {"test_system": "S. pneumoniae", "test": "drug sensitivity test of the pathogenic bacterium from blood culture", "type": "cell-based, Streptococcus pneumoniae", "settings": "Case 2, isolate from blood specimen sampled before antibiotic treatment", "procedure": "as §1"}, "[4]": {"test_system": "Klebsiella oxytoca, Haemophilus influenzae, Streptococcus pneumoniae", "test": "Case 2: pathogen count (nested PCR) and biomarkers in blood before/after antibiotic treatment", "type": "in vivo, human (sepsis patient)", "settings": "for BT (body temperature): pretreatment 39.2; for WBC: pretreatment 108.8; for CRP: pretreatment 150.3; for Presepsin: pretreatment 5379; for IL-6: pretreatment 122000; for Pathogen (Ave): pretreatment 175270", "procedure": "First, bacterial cells were collected from a blood specimen by centrifuging the whole blood at a low rate of 100×g for 5 minutes to separate blood cells, centrifuging the resultant supernatant (containing buffy coat) at a high rate of 20,000×g for 10 minutes to obtain a pellet.\nUsing DNA of a pathogenic bacterium taken from the blood specimen according to the method of Step 1 as a template, nested PCR (1st PCR: 30 cycle→100 double dilution→2nd PCR: 30 to 35 cycles) is carried out. The bacterial cells in patient specimens vary in a wide range from very small to large number. Since it is difficult to accurately determine the bacterial number in a single cycle of PCR, nested PCR methods are used in combination.\nSubsequently, using pathogenic bacterium DNA of Step 1 as a template, nested PCR was carried out together with a quantification control in the conditions described in Step 2. In the 1st PCR and 2nd PCR for quantification, the following bacterial universal primer (primer for detecting almost all bacteria) was used. The target region of the bacterial universal primer is a bacterial conserved region (base sequence region common in almost all bacteria) of a 16S ribosomal RNA gene. A predetermined bacterium is quantified by a bacterial species-specific primer; however, a pathogenic bacterium is not identified in the early stage of sepsis. Because of this, a bacterial species-specific primer cannot be used. Accordingly, unless a bacterial universal primer is used, an unidentified bacterium cannot be detected.\nAs mentioned above, E. coli DNA samples of three different concentrations and of a known bacterial number were used as quantification controls. Based on the data of three quantification controls different in concentration, a calibration curve was prepared. Based on bacterial DNA extracted from a patient specimen, the number of pathogenic bacterial cells was determined. Since the number of bacterial cells was obtained as an E. coli cell-number equivalent used as a quantification control, the number of bacterial cells in a specimen can be more easily, rapidly and accurately determined.\nas §1"}},
  "data": [
    {"compound": "CO/N=C(\\C(=O)N[C@@H]1C(=O)N2C(C(=O)[O-])=C(C[N+]3(C)CCCC3)CS[C@H]12)c1csc(N)n1", "note": "[cefepim]", "values": [
      {"measurement": "drug sensitivity", "setting": "[1]", "result": "sensitive"},
      {"measurement": "drug sensitivity", "setting": "[2]", "result": "sensitive"},
      {"measurement": "drug sensitivity", "setting": "[3]", "result": "medium-level sensitivity"},
      {"measurement": "BT (body temperature)", "setting": "[4]; Case 2, 24 h after antibiotic", "result": 36.4, "unit": "°C"},
      {"measurement": "WBC", "setting": "[4]; Case 2, 24 h after antibiotic", "result": "418.1 × 100/μL"},
      {"measurement": "CRP", "setting": "[4]; Case 2, 24 h after antibiotic", "result": 240.0, "unit": "mg/L"},
      {"measurement": "Presepsin", "setting": "[4]; Case 2, 24 h after antibiotic", "result": 6202, "unit": "ng/mL"},
      {"measurement": "IL-6", "setting": "[4]; Case 2, 24 h after antibiotic", "result": 7400, "unit": "pg/mL"},
      {"measurement": "Pathogen (Ave)", "setting": "[4]; Case 2, 24 h after antibiotic", "result": 31453, "unit": "cells/ml"},
      {"measurement": "BT (body temperature)", "setting": "[4]; Case 2, 72 h after antibiotic", "result": 36.3, "unit": "°C"},
      {"measurement": "WBC", "setting": "[4]; Case 2, 72 h after antibiotic", "result": "348.7 × 100/μL"},
      {"measurement": "CRP", "setting": "[4]; Case 2, 72 h after antibiotic", "result": 145.5, "unit": "mg/L"},
      {"measurement": "Presepsin", "setting": "[4]; Case 2, 72 h after antibiotic", "result": 6060, "unit": "ng/mL"},
      {"measurement": "IL-6", "setting": "[4]; Case 2, 72 h after antibiotic", "result": 168, "unit": "pg/mL"},
      {"measurement": "Pathogen (Ave)", "setting": "[4]; Case 2, 72 h after antibiotic", "result": 2066, "unit": "cells/ml"}
    ]}
  ]
}
